Results from ChEMBL document CHEMBL2440118, “Triazole-dithiocarbamate based selective lysine specific demethylase 1 (LSD1) inactivators inhibit gastric cancer cell growth, invasion, and migration” (J Med Chem, 2013).
Active and inactive are the calls of the source. No cut-off for these calls is given here.

Key:
[1] = target: T1, Amine oxidase [flavin-containing] A (Homo sapiens, UniProt P21397)
T1 sequence (P21397 whole entry): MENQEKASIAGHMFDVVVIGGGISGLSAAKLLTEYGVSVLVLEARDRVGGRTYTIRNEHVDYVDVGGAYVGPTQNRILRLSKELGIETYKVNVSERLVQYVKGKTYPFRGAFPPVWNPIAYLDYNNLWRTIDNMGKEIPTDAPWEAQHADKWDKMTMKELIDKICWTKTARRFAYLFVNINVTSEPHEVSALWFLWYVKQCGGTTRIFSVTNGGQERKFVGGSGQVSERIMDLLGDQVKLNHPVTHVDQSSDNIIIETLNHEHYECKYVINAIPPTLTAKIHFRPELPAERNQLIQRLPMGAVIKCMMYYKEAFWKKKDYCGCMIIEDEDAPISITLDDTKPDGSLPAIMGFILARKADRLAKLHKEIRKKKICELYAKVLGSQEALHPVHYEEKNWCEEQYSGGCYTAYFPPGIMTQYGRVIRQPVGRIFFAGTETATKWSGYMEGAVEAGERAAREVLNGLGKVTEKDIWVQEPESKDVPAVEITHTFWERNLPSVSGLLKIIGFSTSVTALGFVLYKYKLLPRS

[2] = target: Lysine-specific histone demethylase 1A (Homo sapiens) (UniProt O60341); assay: Inhibition of LSD1-snail interaction in human MGC803 cells at 0.25 uM after 48 hrs by immunoprecipitation assay; type: cell-based; details: MGC-803
[3] = target: Lysine-specific histone demethylase 1A (Homo sapiens) (UniProt O60341)
[4] = target: Lysine-specific histone demethylase 1A (Homo sapiens) (UniProt O60341); remark: listed apart in the source
[5] = target: T2, Amine oxidase [flavin-containing] B (Homo sapiens, UniProt P27338)
T2 sequence (P27338 whole entry): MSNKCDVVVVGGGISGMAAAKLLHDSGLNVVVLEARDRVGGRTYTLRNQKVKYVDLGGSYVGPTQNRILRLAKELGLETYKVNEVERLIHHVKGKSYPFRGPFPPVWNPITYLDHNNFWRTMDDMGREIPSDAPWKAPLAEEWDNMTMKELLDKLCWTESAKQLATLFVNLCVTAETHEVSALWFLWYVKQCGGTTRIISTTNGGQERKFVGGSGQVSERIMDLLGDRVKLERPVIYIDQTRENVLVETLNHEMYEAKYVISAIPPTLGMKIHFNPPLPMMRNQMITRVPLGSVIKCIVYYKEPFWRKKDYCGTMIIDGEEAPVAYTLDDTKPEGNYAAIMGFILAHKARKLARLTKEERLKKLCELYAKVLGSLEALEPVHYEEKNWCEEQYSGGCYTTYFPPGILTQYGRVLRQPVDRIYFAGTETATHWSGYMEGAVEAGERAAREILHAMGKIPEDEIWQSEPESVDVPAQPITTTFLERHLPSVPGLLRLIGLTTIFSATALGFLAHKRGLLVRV

[6] = target: Lysine-specific histone demethylase 1A (Homo sapiens) (UniProt O60341); details: 0.5 to […]
[7] = target: Lysine-specific histone demethylase 1A (Homo sapiens) (UniProt O60341); details: 312.5 uM
[8] = target: Lysine-specific histone demethylase 1A (Homo sapiens) (UniProt O60341); details: 0.5 to […]; remark: listed apart in the source
[9] = target: Lysine-specific histone demethylase 1A (Homo sapiens) (UniProt O60341); details: 0.5 to […]; remark: listed apart in the source
[10] = target: Lysine-specific histone demethylase 1A (Homo sapiens) (UniProt O60341); assay: Inhibition of LSD1 in human MGC803 cells assessed as elevation of E-cadherin protein expression at 0.02 to 1 uM after 48 hrs by Western blotting analysis relative to control; type: cell-based; details: MGC-803

Structure (SMILES)	IC50 [1] [mM]	inhibition [2]	inhibition [3]	inhibition [4]	IC50 [5] [µM]	inhibition [6]	inhibition [7]	inhibition [8]	inhibition [9]	inhibition [10]
Cc1ccc(Cn2cc(CSC(=S)N3CCN(C(=O)OC(C)(C)C)CC3)nn2)cc1	> 1.25	Active	Active	Active	> 1250	Active	Active	Active	Active	Active
CC(C)(C)OC(=O)N1CCN(C(=S)SCc2cn(Cc3ccccc3F)nn2)CC1	> 1.25	–	–	–	791	–	–	–	–	–
